Consider one molecule from ChEMBL document CHEMBL1150661, “Panepophenanthrin, from a mushroom strain, a novel inhibitor of the ubiquitin-activating enzyme” (J Nat Prod, 2002).

In this test the target is T1, Ubiquitin-like modifier-activating enzyme 1 (Homo sapiens, UniProt P22314).
T1 sequence (P22314 whole entry): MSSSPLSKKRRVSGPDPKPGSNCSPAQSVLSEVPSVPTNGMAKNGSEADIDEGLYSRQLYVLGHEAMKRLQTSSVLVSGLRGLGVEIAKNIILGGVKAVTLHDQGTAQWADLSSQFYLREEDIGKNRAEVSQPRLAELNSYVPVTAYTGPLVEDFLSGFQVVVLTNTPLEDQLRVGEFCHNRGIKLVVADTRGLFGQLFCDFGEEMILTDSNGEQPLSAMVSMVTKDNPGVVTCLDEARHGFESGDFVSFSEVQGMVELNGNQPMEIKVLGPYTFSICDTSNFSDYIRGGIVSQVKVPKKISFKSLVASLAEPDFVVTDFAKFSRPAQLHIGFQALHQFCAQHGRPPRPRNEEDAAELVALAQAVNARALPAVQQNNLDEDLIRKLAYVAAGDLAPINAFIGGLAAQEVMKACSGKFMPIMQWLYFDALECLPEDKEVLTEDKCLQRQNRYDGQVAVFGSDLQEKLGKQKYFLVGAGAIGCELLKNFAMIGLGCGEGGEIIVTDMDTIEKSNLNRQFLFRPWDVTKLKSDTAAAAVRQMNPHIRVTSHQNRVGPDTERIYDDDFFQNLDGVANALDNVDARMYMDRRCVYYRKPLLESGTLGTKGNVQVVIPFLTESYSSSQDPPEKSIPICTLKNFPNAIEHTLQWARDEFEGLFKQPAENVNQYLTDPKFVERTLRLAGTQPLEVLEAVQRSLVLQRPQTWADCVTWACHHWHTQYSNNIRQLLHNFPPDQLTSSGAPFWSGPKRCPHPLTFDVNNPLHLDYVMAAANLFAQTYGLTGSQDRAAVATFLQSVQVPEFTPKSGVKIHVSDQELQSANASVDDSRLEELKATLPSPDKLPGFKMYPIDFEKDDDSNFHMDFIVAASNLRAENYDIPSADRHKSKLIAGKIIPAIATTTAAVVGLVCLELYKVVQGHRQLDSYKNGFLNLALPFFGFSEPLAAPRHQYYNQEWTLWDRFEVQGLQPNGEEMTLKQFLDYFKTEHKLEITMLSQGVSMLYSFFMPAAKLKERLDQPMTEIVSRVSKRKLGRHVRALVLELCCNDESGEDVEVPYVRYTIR
In words: Inhibition of human recombinant E1-ubiquitin complex formation.

As a reminder, the IC50 is the midpoint of a concentration-inhibition curve. As for `CC(C)(O)/C=C/[C@@]12[C@H]3[C@@H](O)[C@@H]4O[C@@H]4[C@]1(O)OC(C)(C)[C@@H]2C=C1C(=O)[C@H]2O[C@H]2[C@H](O)[C@H]13` [PANEPOPHENANTHRIN], the IC50 is 40.4 µM.
